Laboratory results from patent publication US12195471B2, “Salt of aldose reductase inhibitor, and preparation method and application thereof” (CSPC ZHONGQI PHARMACEUTICAL TECHNOLOGY (SHIJIAZHUANG) CO., …, priority 2019, dated 2025).

What was measured:
Format in all cases: physicochemical
Solubility test in water = conditions: for solubility: thermodynamic from solid, in purified water, saturated state
Experimental: The salts obtained in Example 1, Comparative examples 1, 2 and 6, and the compound of formula A were tested for solubility in water, and the test method was as follows:
Test method: the samples to be tested were taken in a certain amount, gradually added to the purified water respectively, and continuously shaked until the samples reached the saturated state, the weighed amount of the samples to be tested and the used amount of the solvent were recorded, the concentrations at which the samples were dissolved were calculated, and the test results were shown in the following table: […]

[1] = Stability test, accelerated test at 40° C.±2° C./75% RH±5% RH; conditions: for Content (%) / Maximum single impurity (%) / Moisture (%) / Total impurity (%): 40° C.±2° C./75% RH±5% RH
Experimental: The sodium salt of the compound of formula A obtained in Example 1 (packaging conditions: low-density polyethylene bag+polyester/aluminum/polyethylene composite bag for pharmaceutical packaging) was subjected to an accelerated test at 40° C.±2° C./75% RH±5% RH, and the results were as follows: […]

[2] = Hygroscopicity / stable existence of the obtained salt solid; conditions: concluding statement
Experimental: With reference to the preparation method of Example 1, the preparation of alkaline amino acid salts: lysine salt, arginine salt, and proline salt of the compound of formula A was carried out using methanol as the reaction solvent.

**Q.** Which solubility (Solubility test in water) does the source give for `O=C(O)Cc1nn(Cc2nc3cc(C(F)(F)F)ccc3s2)c(=O)c2nccnc12` [Compound of formula A, reference compound] here?
**A.** Its solubility is 35 µg/mL.

**Q.** What about the “solubility in water (in words)” value (Solubility test in water) of the same compound?
**A.** Its value is “insoluble in water”.

**Q.** For `O=C([O-])Cc1nn(Cc2nc3cc(C(F)(F)F)ccc3s2)c(=O)c2nccnc12.[Na+]` [Example 1], which “Content (%)” value ([1]; 0 Month) is on record?
**A.** The value was 100.8%.

**Q.** And the “Maximum single impurity (%)” value ([1]; 0 Month)?
**A.** The value was 0.03%.

**Q.** What about the “Moisture (%)” value ([1]; 0 Month) of the same compound?
**A.** Its value is 0.6%.

**Q.** And the “Total impurity (%)” value ([1]; 0 Month)?
**A.** The value was 0.40%.

**Q.** And the “Content (%)” value ([1]; 1 Month)?
**A.** The value was 99.6%.

**Q.** And the “Maximum single impurity (%)” value ([1]; 1 Month)?
**A.** The value was 0.03%.

**Q.** What about the “Moisture (%)” value ([1]; 1 Month) of the same compound?
**A.** Its value is 0.7%.

**Q.** What about the “Total impurity (%)” value ([1]; 1 Month) of the same compound?
**A.** The value was 0.45%.

**Q.** And the “Content (%)” value ([1]; 2 Month)?
**A.** The value was 99.9%.

**Q.** What about the “Maximum single impurity (%)” value ([1]; 2 Month) of the same compound?
**A.** The value was 0.03%.

**Q.** And the “Moisture (%)” value ([1]; 2 Month)?
**A.** Its value is 0.7%.

**Q.** What about the “Total impurity (%)” value ([1]; 2 Month) of the same compound?
**A.** Its value is 0.37%.

**Q.** And the “Content (%)” value ([1]; 3 Month)?
**A.** Its value is 99.6%.

**Q.** And the “Maximum single impurity (%)” value ([1]; 3 Month)?
**A.** Its value is 0.03%.

**Q.** And the “Moisture (%)” value ([1]; 3 Month)?
**A.** The value was 0.8%.

**Q.** What about the “Total impurity (%)” value ([1]; 3 Month) of the same compound?
**A.** Its value is 0.42%.

**Q.** And the “Content (%)” value ([1]; 6 Month)?
**A.** Its value is 100.9%.

**Q.** And the “Maximum single impurity (%)” value ([1]; 6 Month)?
**A.** The value was 0.03%.

**Q.** And the “Moisture (%)” value ([1]; 6 Month)?
**A.** The value was 0.8%.

**Q.** What about the “Total impurity (%)” value ([1]; 6 Month) of the same compound?
**A.** Its value is 0.54%.

**Q.** And the “quality stability (in words)” value ([1]; concluding statement)?
**A.** Its value is “stable quality”.

**Q.** What about the “hygroscopicity (in words)” value [2] of the same compound?
**A.** Its value is “low hygroscopicity”.

**Q.** And the solubility (Solubility test in water)?
**A.** The solubility was 10000 µg/mL.

**Q.** And the “solubility in water (in words)” value (Solubility test in water)?
**A.** Its value is “good solubility”.
